# According to patent US10280179B2, “Spiroquinoxaline derivatives as inhibitors of non-apoptotic regulated cell-death” (Helmholtz Zentrum Munchen—Deutches Forschungszentrum Fur …, priority 2013, dated 2019):
# pIC50: −log10 of the molar value. Read-outs that look alike come from different tables or passages of the source.
# Legend:
# C57BL/6 mice = assay: Traumatic brain injury (controlled cortical impact) animal model (Example C.5); type: in vivo, mouse; settings: TBI (CCI), 24 h after CCI, compared to vehicle control, FIG. 4
# Method: FIG. 4: Efficiency of a compound of the invention in an animal model of traumatic brain injury.
# Briefly, to test such utility of compounds disclosed herein, male C57BL/6 mice are anesthetised prior to the induction of trauma. Core body temperature is maintained at 37° C. using a feedback-controlled heating pad connected to a rectal probe. To induce trauma, a craniotomy is prepared over the right parietal cortex. Controlled cortical impact (CCI) is delivered perpendicular to the surface of the brain with a custom-made CCI applicator for mice using the following parameters: 8 m/s velocity, 3 mm diameter, 1 mm brain displacement and 150 ms duration. Following CCI, the skull is closed by affixing the removed bone flap using veterinary-grade tissue glue (Vetbond, 3M, St. Paul, Minn.). Compounds are administered at 1 mg/Kg or 10 mg/Kg (dissolved in 40% PEG) 15 minutes after TBI induction and 40% PEG is included as vehicle control. The animals are recovered from anesthesia in an incubator heated to 33° C. Animals are sacrificed and the brain is removed 24 h after CCI and immediately frozen on crushed dry ice and stored at −80° C. […] The sections are stained with cresyl violet for quantifying the area of contused brain, and contusion volume is calculated and the effect of the compounds tested observed following analysis of such data.
# [1] = system: human neuroblastoma cell line SH-SY5Y; assay: Inhibition of BSO-induced non-apoptotic cell death (Example B.1); type: cell-based; settings: SH-SY5Y cells, 72 hours
# Outline: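 SH-SY5Y cells exposed to 50 μM BSO together with compound (0.5 pM–100 μM, triplicate) for 72 h at 37°C, 5% CO2. Survival measured by AquaBluer fluorescence (ex 530–560/em 590 nm), normalised to percent surviving cells, and IC50 derived.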
# Pfa1 cells = assay: Inhibition of non-apoptotic cell death after tamoxifen-induced GPx4 knockout in a recombinant cell line (Example B.4); type: cell-based; settings: Mus musculus, read-out: Pfa1/TAM IC50
# Outline: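 Immortalised murine fibroblasts with tamoxifen-inducible CreERT2 for ablation of both GPx4 copies (Pfa1 cells) received tamoxifen on day 0 together with test compound. Cell survival was measured by AlamarBlue after 72 hours.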
smiles,measurement,setting,value
Clc1cccc(CNC2=Nc3ccccc3NC23CCNCC3)c1 [N-2],contusion volume in the brains of mice following traumatic brain injury,C57BL/6 mice,trend of a (non-significant) positive effect
same,pIC50,"[1]; 50 μM BSO, read-out: SH-SY5Y/BSO IC50",> 7.70
same,pIC50,"[1]; BSO 50 μM, cell survival (AquaBluer), read-out: SH-SY5Y/BSO (Example B.1) IC50",8.55
same,pIC50,Pfa1 cells,> 7.70
